Test results taken from patent US20150056166A1, “FLAVONE DERIVATIVES AND THEIR USE” (Twincore GmbH, priority 2012, published 2015).

How the values were obtained:
FF-Jc1 reporter virus = experiment: HCV cell entry, FF-Jc1 reporter virus in Huh-7.5 cells (FIG. 9); type: cell-based; details: Hepatitis C virus, Huh7.5
Description: FIG. 9: Comparison of flavones 13, 14 and 15. Huh-7.5 cells were seeded in 12-well plates and infected for 4 h with FF-Jc1 reporter virus +/−inhibitor (ranging from 0-100 μM final concentration). 72 h after infection, the cells were lysed and the reporter activity measured. The mean values of 6 measurements are shown in the graph. Fluorine analogues of flavone 13, flavones 14 (BJ751/1) and 15 (BJ755-3 I), inhibit HCV cell entry with 8-10-fold increased effects compared to those of the flavone 13.

HK6a (GT6a) = experiment: Luciferase infection assay, chimeric reporter virus HK6a/6a/R2a in Huh7-Lunet/CD81 cells; type: cell-based, HCV; details: Hepatitis C virus, Huh-7, 72 h
[1] = system: Luc-Jc1/E2/G451R reporter viruses; experiment: Resistance test, Luc-Jc1 versus Luc-Jc1/E2/G451R reporter virus; type: cell-based, HCV; details: Huh7-Lunet/CD81 cells, luciferase 72 h
Description: (§1) FIG. 4: BJ486K is not affected by viral resistance towards a SR-BI-targeting compound, inhibits HCV of different genotypes and prevents infection of primary human hepatocytes Huh7-Lunet/CD81 cells were inoculated with Luc-Jc1 or Luc-Jc1/E2/G451R reporter viruses in the presence of increasing doses of (A) ITX 5061 or (B) BJ486K. Cells were lysed 72 h later. Luciferase activity was determined and is expressed relative to control infections conducted in the presence of DMSO. Mean values of four independent experiments each with quadruplicate measurements including the standard deviation are shown. (C) Huh7-Lunet/CD81 cells were inoculated with genotype 1a, 1b, 2b, 3a, 4a, 5a and 6a chimeric reporter viruses in the presence of increasing doses of BJ486K. Luciferase activity was determined 72 h later and is expressed relative to infections in the presence of DMSO. Mean values of three independent experiments, each with triplicate measurements, are given. (D) Primary human hepatocytes were inoculated with Con1/C3 in the presence of DMSO or increasing concentrations of BJ486K. The inhibition of HCV infection was assessed by focus-formation assay and is expressed as % inhibition relative to DMSO-treated cells. Mean values of duplicate measurements including the error range are given. […]

Con1/C3-HCV = experiment: Infection of primary human hepatocytes, focus-formation assay; type: cell-based; details: Hepatitis C virus, genotype 1b, Hepatocyte, 72 h
Description: as §1, with “(C) Huh7-Lunet/CD81 cells were inoculated with genotype 1a, 1b, 2b, 3a, 4a, 5a and 6a chimeric reporter viruses in the presence of increasing doses of BJ486K.” left out, “Mean values of three independent experiments, each with triplicate measurements, are given. (D) Primary human hepatocytes were inoculated with Con1/C3 in the presence of DMSO or increasing concentrations of BJ486K.” left out, “cells.” for “cells. Mean values of duplicate measurements including the error range are given.”
Normal-appearing liver tissue from patients seronegative for HCV, hepatitis B virus, and human immunodeficiency virus (HIV) was obtained from adult patients undergoing partial hepatectomy for the therapy of metastases. […] Three days later, infectivity titers in culture supernatants were determined by focus-formation assay as previously described by (Pene et al., Journal of Viral Hepatitis 2009;16:705-15). […]

[2] = Bioavailability of BJ486K in mice, plasma levels by LC-MS/MS; type: in vivo
Description: FIG. 10: Oral bioavailability of BJ486K in mice. A single dose of 0.25 mg/kg of BJ486K was administered through oral (A) or intravenous route (B). Plasma levels of BJ486K were determined 5, 15, 30, 60, 120 and 180 minutes post administration. Mean values of two animals including the standard errors are given. (C)
Bioavailability of BJ486K. Mice (24 in total) were treated either orally or intraveniously with a single dose of 0.25 mg/kg of the inhibitor (solved in saline/10% cremophor EL). At different time points after inhibitor administration (5 min, 15 min, 30 min, 60 min, 120 min or 180 min) two mice from each group were sacrified and the blood was centrifuged to obtain the plasma, which was stored at −80° C. until further examination. 400 μl of each plasma sample was mixed with equal amount of a 2% trifluoroacetic acid and loaded on a SPE Strata C18 column (equilibrated with 1 ml methanol and 1 ml 1% trifluoroacetic acid) for solid phase extraction of the plasma. After several washing steps (1% trifluoroacetic acid and water), the samples were eluted with acetonitrile and dried. […] Samples were further analyzed with a LC-MS/MS (triple quadrupole mass spectrometer LCMS 8030 Shimadzu), which was calibrated at the day of measurement. […] Bioavailability was calculated by dividing the area under curve (AUC) for oral route by the AUC for intravenous route.

With COc1ccc(-c2cc(=O)c3c(O)c(O)c(OC)cc3o2)cc1 [BJ486K, 5,6-Dihydroxy-7-methoxy-2-(4-methoxy-phenyl)-chromen-4-one] the EC50 (FF-Jc1 reporter virus) was about 2 µM, the IC50 (HK6a (GT6a)) was 0.75 µM and the IC90 (HK6a (GT6a)) was 2.39 µM. The “antiviral activity against G451R mutant compared with wild type” value [1] was “not changed”, the IC50 (Con1/C3-HCV) was about 10 µM and the bio-availability ([2]; mice) was “rather low”. It also gave a half-life ([2]; mouse, plasma, in mice) of about 7 min.
